Patent US11701333B2, “Antibacterial compounds” (KENT INNOVATION & ENTERPRISE, priority 2017, dated 2023)
Converted amounts (≈) assume the structure as drawn.

What was measured:
Format in all cases: cell-based
S. aureus [1] = test: drop test activity screening; note: key: Y = antibacterial activity; N = No antibacterial activity
Text: (§1) The ability of each of the compounds of the invention to impact bacterial growth and viability has been tested. This has been undertaken using a novel drop-test method for initial activity screening, as well as using conventional growth curve analysis methodology. This novel class of antimicrobial agent has shown bactericidal activity against Gram +ve (e.g. S. aureus, Bacillus megaterium) and bacteriostatic activity against Gram −ve isolates (e.g. E. coli).
(§2) The compounds were screened initially by drop testing methods and then by growth rate methods as it was identified that drop testing methods could give false negatives.

E. coli [2] = test: drop test activity screening; note: key: Y = antibacterial activity; N = No antibacterial activity
Text: as §1, §2

S. aureus [3] = test: growth rate (growth curve) activity screening; settings: for Grow Rates activity S. aureus: phase not given; for Grow Rates activity S. aureus Log: log phase bacterial growth
Text: as §1, §2

E. coli [4] = test: growth rate (growth curve) activity screening; settings: first E. coli growth column, phase not given
Text: as §1, §2

S. aureus [5] = test: Calculated MIC50 and MIC100 values; settings: for MIC50 Staph Log / MIC100 Staph Log: log phase; for MIC50 Staph Stat / MIC100 Staph Stat: stationary phase
Text: (§3) The present inventors have determined MIC50 values, in the nM-μM range, for lead compounds, against clinical S. aureus isolates (e.g. MRSA) and E. coli in both log and stationary phases.

E. coli [6] = test: Calculated MIC50 and MIC100 values
Text: as §3

| Structure (SMILES) | drop test activity S. aureus (S. aureus [1]) | drop test activity E. coli (E. coli [2]) | Grow Rates activity S. aureus Log (S. aureus [3]) | other results |
| --- | --- | --- | --- | --- |
| O=S(=O)(O)CCNC(=S)Nc1ccc(C(F)(F)F)cc1 [Compound 4] | Y | N | – | – |
| Cc1ccc2nc(NC(=O)NCS(=O)(=O)O)sc2c1 [Compound 72] | N | N | N | Grow Rates activity S. aureus (S. aureus [3]): Y |
| O=C(NCS(=O)(=O)O)Nc1cccc2ccccc12 [Compound 45] | N | N | – | – |
| O=C(NCS(=O)(=O)O)Nc1c(F)c(F)c(F)c(F)c1F [Compound 65] | N | N | – | – |
| Nc1ccc(NC(=O)NCS(=O)(=O)O)cc1 [Compound 74] | N | N | Y | – |
| COc1ccc(NC(=O)NCS(=O)(=O)O)cc1 [Compound 39] | N | N | – | – |
| O=C(NCS(=O)(=O)O)Nc1ccccc1-c1nc2ccccc2s1 [Compound 54] | N | N | – | – |
| O=S(=O)(O)CCCNC(=S)Nc1ccc(C(F)(F)F)cc1 [Compound 6] | Y | N | – | – |
| CCCCNC(=O)NCCCS(=O)(=O)O [Compound 50, reference compound] | N | N | – | – |
| O=C(NCCCS(=O)(=O)O)Nc1ccc(C(F)(F)F)cc1 [Compound 5] | N | N | – | – |
| O=C(NCS(=O)(=O)O)Nc1ccc(C(F)(F)F)cc1 [Compound 34] | Y | N | Y | Grow Rates activity E. coli (E. coli [4]): Y; MIC50 Staph Log (S. aureus [5]): 146.6192 μg/mL |
| CCCCNC(=S)NCS(=O)(=O)O [Compound 47, reference compound] | N | N | – | – |
| O=S(=O)(O)CNC(=S)Nc1cc(C(F)(F)F)cc(C(F)(F)F)c1 [Compound 43] | Y | N | Y | Grow Rates activity E. coli (E. coli [4]): Y |
| O=C(NCS(=O)(=O)O)Nc1ccc(C(F)(F)F)cc1 [Compound 1] | Y | N | Y | Grow Rates activity S. aureus (S. aureus [3]): Y; Grow Rates activity E. coli (E. coli [4]): Y; MIC50 Staph Log (S. aureus [5]): 7.35 μg/mL; MIC100 Staph Log (S. aureus [5]): 29.41 μg/mL; MIC50 Staph Stat (S. aureus [5]): 209.132 µg/mL (≈ 701 µM); MIC100 Staph Stat (S. aureus [5]): 254.5639 µg/mL (≈ 854 µM); MIC50 Coli Stat (E. coli [6]; stationary phase): 412.0789 µg/mL (≈ 1380 µM); MIC100 Coli Stat (E. coli [6]; stationary phase): 421.0559 µg/mL (≈ 1410 µM) |
| O=C(NCS(=O)(=O)O)Nc1ccc([N+](=O)[O-])cc1 [Compound 38] | Y | N | Y | Grow Rates activity E. coli (E. coli [4]): Y |
| Cc1ccc2sc(-c3ccc(NC(=O)NCS(=O)(=O)O)cc3)nc2c1 [Compound 53] | Y | N | Y | Grow Rates activity E. coli (E. coli [4]): Y; MIC50 Staph Log (S. aureus [5]): 21.11 μg/mL |
| O=C(NCS(=O)(=O)O)Nc1ccc(C(F)(F)F)cc1 [Compound 37] | Y | N | Y | MIC50 Staph Log (S. aureus [5]): 29.08 μg/mL; MIC100 Staph Log (S. aureus [5]): 30.35 μg/mL; MIC50 Staph Stat (S. aureus [5]): 464.1399 µg/mL (≈ 1560 µM); MIC100 Staph Stat (S. aureus [5]): 559.1301 µg/mL (≈ 1870 µM); MIC50 (E. coli [6]; Escherichia coli, stationary phase, read-out: MIC50 Coli Stat): 451 µg/mL (≈ 1510 µM); MIC (E. coli [6]; Escherichia coli, stationary phase, read-out: MIC100 Coli Stat): 480 µg/mL (≈ 1610 µM); MIC50 Coli Log (E. coli [6]; log phase): 236.9979 μg/mL; MIC100 Coli Log (E. coli [6]; log phase): 505.6726 μg/mL |
| O=C(NCS(=O)(=O)[O-])Nc1ccc(C(F)(F)F)cc1.[K+] [Compound 42] | N | N | – | – |

| Structure (SMILES) | drop test activity S. aureus (S. aureus [1]) | drop test activity E. coli (E. coli [2]) | Grow Rates activity S. aureus Log (S. aureus [3]) | other results |
| --- | --- | --- | --- | --- |
| O=C(NCS(=O)(=O)O)Nc1ccccc1 [Compound 40] | N | N | – | – |
| O=C(NCS(=O)(=O)O)Nc1ccc(C(F)(F)F)cc1 [Compound 33] | Y | N | Y | MIC50 Staph Log (S. aureus [5]): 0.45 μg/mL; MIC100 Staph Log (S. aureus [5]): 2.971 μg/mL; MIC50 Staph Stat (S. aureus [5]): 5.579 µg/mL (≈ 18.7 µM); MIC100 Staph Stat (S. aureus [5]): 7.304 µg/mL (≈ 24.5 µM) |
| CCCCNC(=S)NCCCS(=O)(=O)O [Compound 51, reference compound] | N | N | – | – |
| CCCCNC(=O)NCS(=O)(=O)O [Compound 46, reference compound] | N | N | – | – |
| O=C(NCS(=O)(=O)O)Nc1ccc(Cc2ccc(NC(=O)NCS(=O)(=O)O)cc2)cc1 [Compound 68] | Y | N | Y | MIC50 Staph Log (S. aureus [5]): 370.0761 μg/mL |
| O=S(=O)(O)CNC(=S)Nc1ccc(C(F)(F)F)cc1 [Compound 2] | Y | N | Y | Grow Rates activity E. coli (E. coli [4]): Y; MIC50 Staph Log (S. aureus [5]): 54.13 μg/mL; MIC100 Staph Log (S. aureus [5]): 93.55 μg/mL |
| O=C(NCCS(=O)(=O)O)Nc1ccc(C(F)(F)F)cc1 [Compound 3] | N | N | – | – |
| O=S(=O)(O)CNC(=S)Nc1ccc(C(F)(F)F)cc1 [Compound 62] | N | N | Y | – |
| O=C(NCS(=O)(=O)O)Nc1cc(C(F)(F)F)cc(C(F)(F)F)c1 [Compound 44] | Y | N | – | – |
| O=S(=O)(O)CNC(=S)Nc1ccc(C(F)(F)F)cc1 [Compound 61] | N | N | Y | – |
| O=C(NCS(=O)(=O)O)Nc1ccc2cc3ccccc3cc2c1 [Compound 52] | N | N | Y | Grow Rates activity E. coli (E. coli [4]): Y; MIC50 Staph Log (S. aureus [5]): 330.0044 μg/mL |
| O=C(NCS(=O)(=O)O)Nc1nc2ccccc2s1 [Compound 71] | N | N | Y | Grow Rates activity S. aureus (S. aureus [3]): N |
| CCCCNC(=S)NCCS(=O)(=O)O [Compound 49, reference compound] | N | N | – | – |
| O=C(NCS(=O)(=O)O)Nc1ccc(C(F)(F)F)cc1 [Compound 32] | Y | N | Y | MIC50 Staph Log (S. aureus [5]): 19.14 μg/mL; MIC100 Staph Log (S. aureus [5]): 20.08 μg/mL; MIC50 Staph Stat (S. aureus [5]): 39.4 µg/mL (≈ 132 µM); MIC100 Staph Stat (S. aureus [5]): 57 µg/mL (≈ 191 µM) |
| O=S(=O)(O)CNC(=S)Nc1ccc(C(F)(F)F)cc1 [Compound 63] | N | N | – | – |
| O=C(NCS(=O)(=O)[O-])Nc1ccc(C(F)(F)F)cc1.[Na+] [Compound 41] | Y | N | – | – |
| CCCCNC(=O)NCCS(=O)(=O)O [Compound 48, reference compound] | N | N | – | – |
| O=C(NCS(=O)(=O)O)Nc1ccc(C(F)(F)F)cc1 [Compound 31] | Y | N | Y | MIC50 Staph Log (S. aureus [5]): 21.6 μg/mL; MIC100 Staph Log (S. aureus [5]): 22.68 μg/mL; MIC50 Staph Stat (S. aureus [5]): 14.79 µg/mL (≈ 49.6 µM); MIC100 Staph Stat (S. aureus [5]): 14.84 µg/mL (≈ 49.8 µM) |
